The record followed here is US20250304620A1, “ANTIMICROBIAL PEPTIDE AND APPLICATION THEREOF” (priority 2023, published 2025).

One series has as its system rabbit red blood cells. The class given is cell-based. The conditions noted are these: red cells of rabbit, 1 h. The method, then:
Fresh rabbit blood ([…]) was collected and centrifuged at 500 g for 5 min, a supernatant was discarded, and red blood cells were repeatedly washed with phosphate-buffered saline (PBS, 0.01 M, pH 7.4) until the supernatant was clear. The red blood cells (RBCs) were resuspended to 10 mL, and diluted 25-fold with PBS (0.01 M, pH 7.4) to prepare a red blood cell suspension with a concentration of about 2×10^8 RBC/mL. The AMPs were subjected to gradient dilution with normal saline (0.85%, w/v, NaCl) according to a multiple dilution method, final concentrations of the SMPs were 1.95, 3.9, 7.8, 15.6, 31.3, 62.5, 125, 250, 500, 1000, and 2000 μg/mL. 100 μl of polypeptide solution was taken and added to a 96-well plate with 5 replicates for each concentration; 100 μl of rabbit blood with a red blood cell count of about 2×10^8 RBC/mL was then added to each well, the plate was incubated at 37° C. for 1 h, centrifuged at 500 g for 5 min, 100 μl of supernatant was taken and transferred to a new 96-well plate, and an optical density (OD) at a wavelength of 541 nm was measured using a microplate reader. Triton X-100 (10 mg/mL as a starting concentration, two-fold gradient dilution) was used as a positive control group. A hemolysis rate was calculated using the following formula: Hemolysis rate (%)=[(OD541 of experimental group-OD541 of negative control group)/(OD541 of positive control group−OD541 of negative control group)]×100% Specific results of the hemolysis test are shown in Table 6. Minimum hemolytic concentration (MHC): a lowest drug concentration that can cause 10% hemolysis.

In series [1] the test system is Staphylococcus aureus (NRS 384). Nature of the series: microbe, parasite or virus in culture. The class given is cell-based. An excerpt: According to the Standards of Clinical and Laboratory Standards Institute (CLSI) of the USA for antimicrobial drug susceptibility test operation standards, a micronutrient serial twofold dilution method was used to determine minimum inhibitory concentrations (MICs) of all 60 peptides (S/N: LV-1˜LV-60) against Staphylococcus aureus (NRS 384). The experiment was repeated 5 times in parallel. […] An antibacterial drug Levofloxacin and an AMP Cbf-K16 (sequence of Cbf-K16: […]) were used as positive controls to evaluate the antibacterial effect of the antimicrobial peptides on Staphylococcus aureus (NRS 384).

Series [2] has as its system Escherichia coli ATCC 25922. The experiment in a line: Oral formulations on mice with systemic bacterial infection. The class given is in vivo, ICR mice. The conditions noted are these: 5 mg/kg gavage, three times a day for 7 days, n = 10. As to the method: Both female and male ICR mice were used in the test, half of the female and male mice were taken and randomly assigned into groups, with 10 mice in each group, and kept in separate cages. The mice were divided into a blank control group, a negative control group, a positive control Levofloxacin group, and AMPs LV-1 to LV-30 groups. An Escherichia coli ATCC 25922 bacterial suspension was prepared, a concentration of the suspension was adjusted 1×10^7 CFU/mL for subsequent use. Except for the blank control group, all other mice were injected with the Escherichia coli suspension (0.2 mL, 1×10^7 CFU/mL), into abdominal cavity of the mice, to establish a model. After the model was successfully established, the mice were given drug immediately according to their body weights. Except for the blank control group and the negative control group, the mice in all other groups were gavaged with different compounds, three times a day for 7 consecutive days. The mice were then observed for 14 d. The death of mice in each group was observed, and survival time of the mice was recorded. Results of the effect of the oral formulations of AMPs LV-1 to LV-30 on the survival time of mice infected with Escherichia coli are shown in Table 11.

The subject of series [3] is Pseudomonas aeruginosa ATCC 27853. Nature of the series: Injectable formulations on mice infected with peritonitis. The class given is in vivo, ICR mice. To be noted: 5 mg/kg via tail vein, twice a day for 3 days, n = 10. As to the method:
Both female and male ICR mice were used in the test, half of the female and male mice were taken and randomly assigned into groups, with 10 mice in each group, and kept in separate cages. The mice were divided into a blank control group, a negative control group, a positive control Levofloxacin group, and AMPs LV-1 to LV-30 groups. A bacterial suspension of Pseudomonas aeruginosa ATCC 27853 was prepared, a concentration of the suspension was adjusted 1×10^9 CFU/mL for subsequent use. Except for the blank control group, all other mice were injected with the bacterial suspension (0.2 mL, 1×10^9 CFU/mL), into abdominal cavity of the mice, to establish a model. After the model was successfully established, the mice were given drug immediately according to their body weights. Except for the blank control group and the negative control group, the mice in all other groups were administered the corresponding injectable formulations via tail vein, twice a day for 3 consecutive days. The mice were then observed for 14 d. The death of mice in each group was observed, and survival time of the mice was recorded. Results of the effect of the injectable formulations of AMPs LV-1 to LV-30 on the survival time of mice infected with Pseudomonas aeruginosa are shown in Table 10.

Values after ≈ are worked out from the molar mass of the structure shown. Marks after values point to notes of the source that are not given here. Non-standard residues stand in square brackets, D forms with d. Residues, ends and D or L forms follow the SMILES beside them. Phe(3,4-Cl2) = N[C@@H](Cc1ccc(Cl)c(Cl)c1)C(=O)O; Phe(4-CF3) = N[C@@H](Cc1ccc(C(F)(F)F)cc1)C(=O)O; Phe(3,4-F2) = N[C@@H](Cc1ccc(F)c(F)c1)C(=O)O; Phe(4-Br) = N[C@@H](Cc1ccc(Br)cc1)C(=O)O; Phe(4-Cl) = N[C@@H](Cc1ccc(Cl)cc1)C(=O)O; Phe(4-F) = N[C@@H](Cc1ccc(F)cc1)C(=O)O; Phe(4-Me) = Cc1ccc(C[C@H](N)C(=O)O)cc1; 2Nal = N[C@@H](Cc1ccc2ccccc2c1)C(=O)O

As to `CC(=O)N[C@@H](CCCNC(=N)N)C(=O)N[C@@H](CCCNC(=N)N)C(=O)N[C@@H](CC(C)C)C(=O)N[C@@H](CC(C)C)C(=O)N[C@@H](Cc1ccc2ccccc2c1)C(=O)N[C@@H](CCCNC(=N)N)C(=O)N[C@@H](CC(C)C)C(=O)N[C@@H](CCCNC(=N)N)C(=O)N[C@@H](Cc1ccc2ccccc2c1)C(=O)N[C@@H](CCCNC(=N)N)C(=O)N[C@@H](CCCNC(=N)N)C(N)=O` [LV-31] (Ac-RRLL[2Nal]RLR[2Nal]RR-NH2), the “MHC (minimum hemolytic concentration, lowest concentration causing 10% hemolysis)” value with rabbit red blood cells was above 1000 µg/mL. In series [1], the “MIC against Staphylococcus aureus (NRS 384)” value (from here on “MIC … (NRS 384)”) is 4 mg/L (≈ 2.31 µM).
As for `CC(=O)N[C@@H](CCCNC(=N)N)C(=O)N[C@@H](CCCCN)C(=O)N[C@@H](CC(C)C)C(=O)N[C@@H](CC(C)C)C(=O)N[C@@H](Cc1ccccc1)C(=O)N[C@@H](CCCNC(=N)N)C(=O)N[C@@H](CC(C)C)C(=O)N[C@@H](CCCCN)C(=O)N[C@@H](Cc1ccc2ccccc2c1)C(=O)N[C@@H](CCCNC(=N)N)C(=O)N[C@@H](CCCCN)C(N)=O` [LV-33] (Ac-RKLLFRLK[2Nal]RK-NH2), the “MHC (minimum hemolytic concentration, lowest concentration causing 10% hemolysis)” value in the series with rabbit red blood cells is above 1000 µg/mL. Also, in series [1], the “MIC … (NRS 384)” value is 8 mg/L (≈ 5.01 µM).
For `CC(=O)N[C@@H](CCCNC(=N)N)C(=O)N[C@@H](CCCCN)C(=O)N[C@@H](CC(C)C)C(=O)N[C@@H](CC(C)C)C(=O)N[C@@H](Cc1ccc2ccccc2c1)C(=O)N[C@@H](CCCNC(=N)N)C(=O)N[C@@H](CC(C)C)C(=O)N[C@@H](CCCCN)C(=O)N[C@@H](Cc1ccccc1)C(=O)N[C@@H](CCCNC(=N)N)C(=O)N[C@@H](CCCCN)C(N)=O` [LV-34] (Ac-RKLL[2Nal]RLKFRK-NH2), in that order: above 1000 µg/mL and 4 mg/L (≈ 2.51 µM).
Taken in the same sequence, the figures for `CC(=O)N[C@@H](CCCNC(=N)N)C(=O)N[C@@H](CCCCN)C(=O)N[C@@H](CC(C)C)C(=O)N[C@@H](CC(C)C)C(=O)N[C@@H](Cc1ccc(F)cc1)C(=O)N[C@@H](CCCCN)C(=O)N[C@@H](CC(C)C)C(=O)N[C@@H](CCCCN)C(=O)N[C@@H](Cc1ccc(F)cc1)C(=O)N[C@@H](CCCCN)C(=O)N[C@@H](CCCNC(=N)N)C(N)=O` [LV-35] (Ac-RKLL[Phe(4-F)]KLK[Phe(4-F)]KR-NH2) were above 1000 µg/mL and 8 mg/L (≈ 5.15 µM).
Taken in the same sequence, the figures for `CC(=O)N[C@@H](CCCNC(=N)N)C(=O)N[C@@H](CCCCN)C(=O)N[C@@H](CC(C)C)C(=O)N[C@@H](CC(C)C)C(=O)N[C@@H](Cc1ccc(F)c(F)c1)C(=O)N[C@@H](CCCCN)C(=O)N[C@@H](CC(C)C)C(=O)N[C@@H](CCCCN)C(=O)N[C@@H](Cc1ccc(F)c(F)c1)C(=O)N[C@@H](CCCCN)C(=O)N[C@@H](CCCNC(=N)N)C(N)=O` [LV-36] (Ac-RKLL[Phe(3,4-F2)]KLK[Phe(3,4-F2)]KR-NH2) were above 1000 µg/mL and 4 mg/L (≈ 2.52 µM).
Turning to `CC(=O)N[C@@H](CCCNC(=N)N)C(=O)N[C@@H](CCCCN)C(=O)N[C@@H](CC(C)C)C(=O)N[C@@H](CC(C)C)C(=O)N[C@@H](Cc1ccc(Cl)cc1)C(=O)N[C@@H](CCCCN)C(=O)N[C@@H](CC(C)C)C(=O)N[C@@H](CCCCN)C(=O)N[C@@H](Cc1ccc(Cl)cc1)C(=O)N[C@@H](CCCCN)C(=O)N[C@@H](CCCNC(=N)N)C(N)=O` [LV-37] (Ac-RKLL[Phe(4-Cl)]KLK[Phe(4-Cl)]KR-NH2), the “MHC (minimum hemolytic concentration, lowest concentration causing 10% hemolysis)” value in the series on rabbit red blood cells was above 1000 µg/mL. Moreover, in series [1], the “MIC … (NRS 384)” value was determined as 4 mg/L (≈ 2.52 µM).
Turning to `CC(=O)N[C@@H](CCCNC(=N)N)C(=O)N[C@@H](CCCCN)C(=O)N[C@@H](CC(C)C)C(=O)N[C@@H](CC(C)C)C(=O)N[C@@H](Cc1ccc(Cl)c(Cl)c1)C(=O)N[C@@H](CCCCN)C(=O)N[C@@H](CC(C)C)C(=O)N[C@@H](CCCCN)C(=O)N[C@@H](Cc1ccc(Cl)c(Cl)c1)C(=O)N[C@@H](CCCCN)C(=O)N[C@@H](CCCNC(=N)N)C(N)=O` [LV-38] (Ac-RKLL[Phe(3,4-Cl2)]KLK[Phe(3,4-Cl2)]KR-NH2), in the series on rabbit red blood cells, the “MHC (minimum hemolytic concentration, lowest concentration causing 10% hemolysis)” value was above 1000 µg/mL. In addition, the “MIC … (NRS 384)” value in series [1] was 8 mg/L (≈ 4.83 µM).
Taken in the same sequence, the figures for `CC(=O)N[C@@H](CCCNC(=N)N)C(=O)N[C@@H](CCCCN)C(=O)N[C@@H](CC(C)C)C(=O)N[C@@H](CC(C)C)C(=O)N[C@@H](Cc1ccc(C(F)(F)F)cc1)C(=O)N[C@@H](CCCCN)C(=O)N[C@@H](CC(C)C)C(=O)N[C@@H](CCCCN)C(=O)N[C@@H](Cc1ccc(C(F)(F)F)cc1)C(=O)N[C@@H](CCCCN)C(=O)N[C@@H](CCCNC(=N)N)C(N)=O` [LV-39] (Ac-RKLL[Phe(4-CF3)]KLK[Phe(4-CF3)]KR-NH2) were above 1000 µg/mL and 8 mg/L (≈ 4.84 µM).
Turning to `CC(=O)N[C@@H](CCCCN)C(=O)N[C@@H](CCCCN)C(=O)N[C@@H](CC(C)C)C(=O)N[C@@H](CC(C)C)C(=O)N[C@@H](Cc1ccc(Br)cc1)C(=O)N[C@@H](CCCNC(=N)N)C(=O)N[C@@H](CC(C)C)C(=O)N[C@@H](CCCCN)C(=O)N[C@@H](Cc1ccc(Br)cc1)C(=O)N[C@@H](CCCNC(=N)N)C(=O)N[C@@H](CCCCN)C(N)=O` [LV-40] (Ac-KKLL[Phe(4-Br)]RLK[Phe(4-Br)]RK-NH2), the “MHC (minimum hemolytic concentration, lowest concentration causing 10% hemolysis)” value in the series on rabbit red blood cells was above 1000 µg/mL. Further, the “MIC … (NRS 384)” value in series [1] is 4 mg/L (≈ 2.39 µM).
Consider `CC(=O)N[C@@H](CCCNC(=N)N)C(=O)N[C@@H](CCCCN)C(=O)N[C@@H](CC(C)C)C(=O)N[C@@H](CC(C)C)C(=O)N[C@@H](Cc1ccc(C)cc1)C(=O)N[C@@H](CCCCN)C(=O)N[C@@H](CC(C)C)C(=O)N[C@@H](CCCCN)C(=O)N[C@@H](Cc1ccc(C)cc1)C(=O)N[C@@H](CCCCN)C(=O)N[C@@H](CCCNC(=N)N)C(N)=O` [LV-41] (Ac-RKLL[Phe(4-Me)]KLK[Phe(4-Me)]KR-NH2), for which the “MHC (minimum hemolytic concentration, lowest concentration causing 10% hemolysis)” value in the series with rabbit red blood cells is above 1000 µg/mL. Further, the “MIC … (NRS 384)” value in series [1] is 4 mg/L (≈ 2.59 µM).
On to `C[C@H]1COc2c(N3CCN(C)CC3)c(F)cc3c(=O)c(C(=O)O)cn1c23` [Levofloxacin, reference compound], for which, in series [2], the “Number of mice that died on each day after infection: day 4” value worked out at 2 Mouse, the “Number of mice that died on each day after infection: day 5” value was found to be 2 Mouse, the “Number of mice that died on each day after infection: day 6” value came to 1 Mouse and the “Number of mice that died on each day after infection: day 7” value is reported as 1 Mouse. The “Number of mice that died on each day after infection: day 8” value in series [2] came out at 1 Mouse. Moreover, in series [2] (observed for 14 d), the “Average survival times (Days)” value is recorded as 8.1* Days. In addition, in series [3], the “Number of mice that died on each day after infection: day 1” value turned out to be 3 Mouse, the “Number of mice that died on each day after infection: day 2” value was 1 Mouse, the “Number of mice that died on each day after infection: day 3” value amounted to 1 Mouse and the “Number of mice that died on each day after infection: day 4” value is given as 1 Mouse. The “Number of mice that died on each day after infection: day 5” value in series [3] was determined as 1 Mouse. Besides, the “Average survival times (Days)” value in series [3] (observed for 14 d) is on record as 5.9* Days. For the same molecule, in series [1] (Staphylococcus aureus (NRS 384), read-out: MIC against Staphylococcus aureus (NRS 384)), the MIC was 1 mg/L (≈ 2.77 µM).
